According to patent US20110263454A1, “Methods of Identifying Functional Characteristics of Promoters, Transcription Modifying Proteins and Transcription Modulating Agents” (Salk Institute for Biological Studies, priority 2008, published 2011):

Experiments:
mUCP3 promoter = assay: NHR-promoter luciferase screen, mUCP3 promoter; format: cell-based, mouse; details: for Normalized Luc. act., normalized to control / Luc. act., normalized to lacZ: mUCP3 promoter reporter; for Normalized Luc. act., normalized to control: HR without or with its ligand, relative to control; for Luc. act., normalized to lacZ: hormone receptor (HR) without or with its ligand; for mUCP3 promoter reporter activity: transcription factor +/- ligand, control = 1.00
Experimental: (§1) The use, feasibility, and reproducibility of the functional NHR-promoter screen in a 48-well format have been tested validated. Briefly, there were co-expressed 50 ng of each NHR/NHR homodimer or NHR/RXR heterodimer with 100 ng promoter/luciferase construct and 50 ng of LacZ (as a control for transfection efficiency) in CV-1 cells using Fugene HD (Roche) as a transfection reagent (alternatively or additionally, a CMV-YFP construct can be used as a transfection control). Each of the nuclear hormone receptors that were used in these experiments was cloned into a pcDNA3.1 vector and comprised a C-terminally linked V5H6 tag. Twenty-four hours after transfection, appropriate ligands were added, where applicable, (see Table 5 for various ligands and concentrations and after 48 hrs, samples were assayed for luciferase and LacZ activity. To measure for luciferase activity 15 ul of sample was added to 30 ul of luciferase buffer (20 mM tricine, 1.07 mM MgCarbonate, 2.67 mM MgSulfate, 0.1 mM Naz-EDTA, 5 mM DTT, 5 mM ATP, 0.15 mg/ml CoA, 0.5 mM Luciferin), mixed briefly, and run in a Perkin Elmer Victor 5 luminometer. Thus, the functional NHR-promoter screen was used to observe the transcriptional activity of 29 promoters from various physiological pathways including inflammation, lipid and sugar metabolism, cholesterol transport, xenobiotic metabolism, and circadian rhythm.
(§2) The promoters that facilitate transcription of the indicated gene products that were tested using the protocols described herein are listed in the first row of the table. The nuclear hormone receptors and, where applicable, ligands that were assayed for their transcriptional effects on the promoters are listed in the first column of the table. The data represent the luciferase activity of each sample normalized to both the lacZ activity of that sample and to a control, e.g., no NHR or ligand, as customary in the art. As described previously, these normalizations allow the transcriptional activity of each reporter cell to be compared to other samples.
(§3) Tables 7-40 show the transcriptional effects of the hormone receptors, and, where applicable, ligands (orphan receptors are screened without ligand), on each individual promoter. […] The control data of each table are shown in their last rows.

MCP-1 promoter = assay: NHR-promoter luciferase screen, MCP-1 promoter; format: cell-based; details: for Normalized Luc. act., normalized to control / Luc. act., normalized to lacZ: MCP-1 promoter reporter; for Normalized Luc. act., normalized to control: HR without or with its ligand, relative to control; for Luc. act., normalized to lacZ: hormone receptor (HR) without or with its ligand; for mMCP-1 promoter reporter activity: transcription factor +/- ligand, control = 1.00
Experimental: as §1, §2, §3

mADRP promoter = assay: NHR-promoter luciferase screen, mADRP promoter; format: cell-based, mouse; details: for Luc. act., normalized to lacZ / Normalized Luc. act., normalized to control: ADRP promoter, HR/ligand component; for mADRP promoter reporter activity: transcription factor +/- ligand, control = 1.00
Experimental: as §1, §2, §3

mDio2 promoter = assay: NHR-promoter luciferase screen, mDio2 promoter; format: cell-based, mouse; details: for Luc. act., normalized to lacZ / Normalized Luc. act., normalized to control: Dio2, HR component without or with its ligand; for mDio2 promoter reporter activity: transcription factor +/- ligand, control = 1.00
Experimental: as §1, §2, §3

Bmal1 promoter = assay: NHR-promoter luciferase screen, Bmal1 promoter; format: cell-based, mouse; details: for Luc. act., normalized to lacZ / Normalized Luc. act., normalized to control: Bmal1 promoter, HR component without or with ligand; for mBmal1 promoter reporter activity: transcription factor +/- ligand, control = 1.00
Experimental: as §1, §2, §3

hIFNg promoter = assay: NHR-promoter luciferase screen, hIFNg promoter; format: cell-based, human; details: for Luc. act., normalized to lacZ / Normalized Luc. act., normalized to control: IFNg promoter, HR component without or with ligand; for hIFNg promoter reporter activity: transcription factor +/- ligand, control = 1.00
Experimental: as §1, §2, §3

| Substance | Normalized Luc. act., normalized to control (mUCP3 promoter) | Luc. act., normalized to lacZ (mUCP3 promoter) | mUCP3 promoter reporter activity (mUCP3 promoter) | Normalized Luc. act., normalized to control (MCP-1 promoter) | Luc. act., normalized to lacZ (MCP-1 promoter) | mMCP-1 promoter reporter activity (MCP-1 promoter) | Luc. act., normalized to lacZ (mADRP promoter) | Normalized Luc. act., normalized to control (mADRP promoter) | mADRP promoter reporter activity (mADRP promoter) | Luc. act., normalized to lacZ (mDio2 promoter) | Normalized Luc. act., normalized to control (mDio2 promoter) | mDio2 promoter reporter activity (mDio2 promoter) | Luc. act., normalized to lacZ (Bmal1 promoter) | Normalized Luc. act., normalized to control (Bmal1 promoter) | mBmal1 promoter reporter activity (Bmal1 promoter) | Luc. act., normalized to lacZ (hIFNg promoter) | Normalized Luc. act., normalized to control (hIFNg promoter) | hIFNg promoter reporter activity (hIFNg promoter) |
| --- | --- | --- | --- | --- | --- | --- | --- | --- | --- | --- | --- | --- | --- | --- | --- | --- | --- | --- |
| PNR: Photoreceptor-specific Nuclear Receptor (NR2E3), cDNA driver | 0.8 | 0.5 | 0.79 | 1.1 | 116.3 | 1.09 | 381.7 | 0.8 | 0.77 | 14.0 | 0.9 | 0.89 | 7.6 | 0.5 | 0.49 | 11.3 | 0.7 | 0.71 |
| AR: Androsterone Receptor (NR3C4), cDNA driver | 2.5 | 1.69 | 2.50 | 0.6 | 62.4 | 0.58 | 600.8 | 1.2 | 1.21 | 19.7 | 1.3 | 1.26 | 13.5 | 0.9 | 0.86 | 31.4 | 2.0 | 1.97 |
| PPARg: Peroxisome proliferator activated receptor γ (NR1C3), cDNA driver | 1.8 | 1.2 | 1.83 | 1.4 | 146.1 | 1.36 | 891.4 | 1.8 | 1.79 | 35.5 | 2.3 | 2.26 | 13.8 | 0.9 | 0.88 | 24.04 | 1.5 | 1.51 |
| PPARa: Peroxisome proliferator activated receptor α (NR1C1), cDNA driver | 2.1 | 1.5 | 2.15 | 1.1 | 121.8 | 1.14 | 1497.1 | 3.0 | 3.01 | 23.0 | 1.5 | 1.46 | 8.1 | 0.5 | 0.52 | 11.3 | 0.7 | 0.71 |
| ERR1: Estrogen Related Receptor α (NR3B1, ERRa), cDNA driver | 1.5 | 1.0 | 1.47 | 2.2 | 237.3 | 2.22 | 767.6 | 1.5 | 1.54 | 34.6 | 2.2 | 2.20 | 13.6 | 0.9 | 0.87 | 18.5 | 1.2 | 1.17 |
| TLX: Tailless (homolog of drosophila) (NR2E1), cDNA driver | 1.1 | 0.8 | 1.11 | 0.6 | 60.9 | 0.57 | 259.2 | 0.5 | 0.52 | 9.5 | 0.6 | 0.60 | 12.2 | 0.8 | 0.78 | 28.0 | 1.8 | 1.76 |
| LXRa: Liver X Receptor α (NR1H3), cDNA driver | 1.6 | 1.1 | 1.58 | 0.9 | 97.3 | 0.91 | 1095.7 | 2.2 | 2.20 | 19.0 | 1.2 | 1.21 | 19.7 | 1.3 | 1.26 | 24.59 | 1.5 | 1.55 |
| NR4a1: NR4a1 (NR4A1; NUR77), nuclear hormone receptor cDNA driver | 2.1 | 1.40 | 2.07 | 0.7 | 76.3 | 0.71 | 1029.3 | 2.1 | 2.07 | 21.8 | 1.4 | 1.39 | 15.7 | 1.0 | 1.00 | 35.6 | 2.2 | 2.24 |
| GR: Glucocorticoid Receptor (NR3C1), cDNA driver | 0.9 | 0.59 | 0.88 | 0.2 | 23.9 | 0.22 | 238.1 | 0.5 | 0.48 | 13.2 | 0.8 | 0.84 | 13.2 | 0.8 | 0.84 | 8.9 | 0.6 | 0.56 |
